Patent US20110224193A1, “INHIBITORS OF DIACYLGLYCEROL ACYLTRANSFERASE” (MERCK SHARP & DOHME CORP, priority 2008, published 2011)

Each molecule was assayed against T1, human DGAT1 enzyme (Homo sapiens, UniProt O75907) (assay: in vitro DGAT1 inhibition assay (microsomes, [14C]-palmitoyl-CoA, SPA beads)). Conditions: human DGAT1 expressed in Sf9 insect cell microsomes, 2 hours at room temperature; read-out: hDGAT IC50.
T1 construct: made in house; host or cells: Sf9 insect cells (microsomes)
T1 sequence (O75907 1-488): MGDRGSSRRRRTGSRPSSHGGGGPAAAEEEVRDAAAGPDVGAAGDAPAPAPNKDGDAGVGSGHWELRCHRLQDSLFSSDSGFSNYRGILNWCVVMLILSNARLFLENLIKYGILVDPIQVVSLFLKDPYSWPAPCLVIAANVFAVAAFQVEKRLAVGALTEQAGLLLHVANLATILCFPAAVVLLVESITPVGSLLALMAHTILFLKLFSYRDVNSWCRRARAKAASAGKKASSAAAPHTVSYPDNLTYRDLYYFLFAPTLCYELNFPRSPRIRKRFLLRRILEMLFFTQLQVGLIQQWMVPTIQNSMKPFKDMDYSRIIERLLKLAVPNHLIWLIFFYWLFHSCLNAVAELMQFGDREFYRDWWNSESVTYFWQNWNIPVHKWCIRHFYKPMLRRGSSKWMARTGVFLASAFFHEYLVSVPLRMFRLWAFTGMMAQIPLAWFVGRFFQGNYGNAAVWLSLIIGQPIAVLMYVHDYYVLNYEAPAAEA
Assay type: biochemical
Method: A useful assay to determine the DGAT inhibitory activity of the inventive compounds is described below:
The in vitro assay to identify DGAT1 inhibitors uses human DGAT1 enzyme expressed in Sf9 insect cells prepared as microsomes. The reaction is initiated by the addition of the combined substrates 1,2-dioleoyl-sn-glycerol and [^14C]-palmitoyl-Co A and incubated with test compounds and microsomal membranes for 2 hours at room temperature. The assay is stopped by adding 0.5 mg wheat germ agglutinin beads in assay buffer with 1% Brij-35 and 1% 3-cholamidopropyldimethyl-ammonio-1-propane sulfonate. Plates are sealed with TopSeal and incubated for 18 hours to allow the radioactive triglyceride product to come into proximity with the bead. Plates are read on a TopCount instrument.
Percent inhibition was calculated as the percent of (test compound inhibition minus non-specific binding) relative to (total binding minus non-specific binding). IC50 values were determined by curve fitting the data to a Sigmoidal dose-response in GraphPad Prism utilizing the following equation:
Y=A+(B−A)/(1+10̂((Log IC50−X))),
where A and B are the bottom and top of the curve (highest and lowest inhibition), respectively, and X is the logarithm of concentration.

SMILES | IC50 [nM]
O=C(Nc1ccc(N2CCN(Cc3ccccc3)C(=O)C2)nc1)c1oc(-c2ccccc2)nc1C(F)(F)F [Compound 62] | 11 to 100
O=C(Nc1ccc(N2CCC(n3c(=O)[nH]c4ccccc43)CC2)nc1)c1oc(-c2ccccc2)nc1C(F)(F)F [Compound 72] | 101 to 500
O=C(Nc1ccc(N2CCC(O)(c3ccccc3)CC2)nc1)c1oc(-c2ccccc2)nc1C(F)(F)F [Compound 78] | 101 to 500
O=C(Nc1ccc(N2CCC(O)(c3ccccc3)CC2)nc1)c1nc(-c2ccccc2)oc1C(F)(F)F [Compound 82] | 101 to 500
O=C(Nc1ccc(N2CCC(CCc3ccccc3)CC2)nc1)c1oc(-c2ccccc2)nc1C(F)(F)F [Compound 151] | 101 to 500
O=C(Nc1ccc(N2CCC(OCc3ccccc3)CC2)nc1)c1oc(-c2ccccc2)nc1C(F)(F)F [Compound 153] | 11 to 100
O=C(Nc1ccc(N2CCC(C(O)c3ccccc3)CC2)nc1)c1oc(-c2ccccc2)nc1C(F)(F)F (centres unmarked) [Compound 155] | 11 to 100
O=C(Nc1ccc(N2CCC(=O)N(Cc3ccccc3)CC2)nc1)c1oc(-c2ccccc2)nc1C(F)(F)F [Compound 157] | 101 to 500
O=C(Nc1ccc(N2CCN(C(=O)C(O)C(F)(F)F)CC2)nc1)c1oc(-c2ccccc2)nc1C(F)(F)F (centres unmarked) [Compound 164] | 11 to 100
O=C(Nc1ccc(N2CCN(C(=O)[C@H](O)c3ccccc3)CC2)nc1)c1oc(-c2ccccc2)nc1C(F)(F)F [Compound 165] | 11 to 100
O=C(Nc1ccc(N2CCN(C(=O)C(O)c3ccc(Cl)cc3)CC2)nc1)c1oc(-c2ccccc2)nc1C(F)(F)F (centres unmarked) [Compound 168] | 11 to 100
O=C(Nc1ccc(N2CCN(C(=O)[C@H](O)C3CCCCC3)CC2)nc1)c1oc(-c2ccccc2)nc1C(F)(F)F [Compound 169] | 11 to 100

Results, then the molecule that gave them:

IC50 [nM] | SMILES
11 to 100 | O=C(Nc1ccc(N2CCN(C(=O)[C@@H](O)C3CCCCC3)CC2)nc1)c1oc(-c2ccccc2)nc1C(F)(F)F [Compound 170]
11 to 100 | O=C(Nc1ccc(N2CCN(C(=O)C(O)Cc3ccccc3)CC2)nc1)c1oc(-c2ccccc2)nc1C(F)(F)F (centres unmarked) [Compound 171]
11 to 100 | O=C(O)CC(O)(C(=O)N1CCN(c2ccc(NC(=O)c3oc(-c4ccccc4)nc3C(F)(F)F)cn2)CC1)C(F)(F)F (centres unmarked) [Compound 172]
11 to 100 | O=C(Nc1ccc(N2CCN(C(=O)C(O)c3ccc4c(c3)OCO4)CC2)nc1)c1oc(-c2ccccc2)nc1C(F)(F)F (centres unmarked) [Compound 176]
11 to 100 | O=C(Nc1ccc(N2CCCN(C(=O)[C@H](O)c3ccccc3)CC2)nc1)c1oc(-c2ccccc2)nc1C(F)(F)F [Compound 179]
11 to 100 | O=C(Nc1ccc(N2CCCN(C(=O)[C@H](O)C3CCCCC3)CC2)nc1)c1oc(-c2ccccc2)nc1C(F)(F)F [Compound 180]
11 to 100 | O=C(Nc1ccc(N2CCCN(C(=O)C(O)C(F)(F)F)CC2)nc1)c1oc(-c2ccccc2)nc1C(F)(F)F (centres unmarked) [Compound 181]
11 to 100 | O=C(Nc1ccc(N2CCCN(C(=O)[C@H](O)c3ccc(F)c(F)c3)CC2)nc1)c1oc(-c2ccccc2)nc1C(F)(F)F [Compound 182]
